Results from patent US20050153894A1, “p21 peptides” (Cyclacel Limited, priority 1999, published 2005).
Square brackets hold non-standard residues; d marks the D form. Phe(4-F) = N[C@@H](Cc1ccc(F)cc1)C(=O)O; Cit = NC(=O)NCCC[C@H](N)C(=O)O; dPsa = O-acetyl-D-phenylserine; Psa = O-acetylphenylserine; Abu = CC[C@H](N)C(=O)O

Assays:
Type in all cases: biochemical
CDK2/cyclin A = CDK2/cyclin A (Homo sapiens, UniProt P20248); assay: CDK2/cyclin A kinase assay, substrate pRb(773-928); conditions: for Relative activity Kinase Inhibition: pRb substrate, [ATP] = 100 μM
Text: Reactions were stopped on ice, followed by filtration through p81 filterplates (Whatman Polyfiltronics, Kent, UK).

CDK2/Cyclin E = biological target: T1, CDK2/Cyclin E (Homo sapiens, UniProt P24864); assay: CDK2/Cyclin E kinase assay, phosphorylation of GST-Rb; conditions: for Kinase Inhibition Cyclin E/CDK2 % Inhibition / Kinase Inhibition Cyclin E/CDK2 IC30: GST-pRb substrate, [ATP] = 100 μM
T1 construct: 6xHis; made in house; host or cells: Sf9 insect cells (baculovirus co-expression)
Procedure: (§1) The phosphorylation reaction mixture (total volume 40 μl) consisted of 50 mM HEPES pH 7.4, 20 mM MgCl2, 5 mM EGTA, 2 mM DTT, 20 mM β-glycerophosphate, 2 mM NaF, 1 mM Na3VO4, Protease Inhibitors Cocktail (Sigma, see above), BSA 0.5 mg/ml, 1 μg purified enzyme complex, 10 μl of GST-Rb-Sepharose beads, 100 μM ATP, 0.2 μCi ^32P-ATP. The reaction was carried out for 30 min at 30° C. at constant shaking. At the end of this period 100 μl of 50 mM HEPES, pH 7.4 and 1 mM ATP were added to each well and the total volume was transferred onto GFC filtered plate. The plate was washed 5 times with 200 μl of 50 mM HEPES, pH 7.4 and 1 mM ATP. To each well were added 50 μl scintillant liquid and the radioactivity of the samples was measured on Scintilation counter (Topcount, HP). The IC50 values of different peptides were calculated using GraFit software.

CDK4/Cyclin D1 = biological target: T2, CDK4/Cyclin D1 (Homo sapiens, UniProt P24385); assay: CDK4/Cyclin D1 kinase assay, phosphorylation of GST-Rb; conditions: for Kinase Inhibition Cyclin D1/CDK4 % Inhibition / Kinase Inhibition Cyclin D1/CDK4 IC30: GST-pRb substrate, [ATP] = 100 μM
T2 construct: made in house; host or cells: CDK4: Sf9 insect cells (baculovirus)
T2 sequence (P24385 whole entry): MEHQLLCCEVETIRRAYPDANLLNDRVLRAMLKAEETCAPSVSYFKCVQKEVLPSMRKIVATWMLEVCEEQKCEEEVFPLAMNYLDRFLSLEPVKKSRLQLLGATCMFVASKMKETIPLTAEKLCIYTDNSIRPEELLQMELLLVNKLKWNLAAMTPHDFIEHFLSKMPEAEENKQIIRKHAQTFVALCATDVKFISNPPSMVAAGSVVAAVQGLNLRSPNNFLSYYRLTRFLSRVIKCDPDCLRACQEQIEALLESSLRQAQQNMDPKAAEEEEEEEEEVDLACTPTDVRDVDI
T2 sequence (P11802 whole entry partner): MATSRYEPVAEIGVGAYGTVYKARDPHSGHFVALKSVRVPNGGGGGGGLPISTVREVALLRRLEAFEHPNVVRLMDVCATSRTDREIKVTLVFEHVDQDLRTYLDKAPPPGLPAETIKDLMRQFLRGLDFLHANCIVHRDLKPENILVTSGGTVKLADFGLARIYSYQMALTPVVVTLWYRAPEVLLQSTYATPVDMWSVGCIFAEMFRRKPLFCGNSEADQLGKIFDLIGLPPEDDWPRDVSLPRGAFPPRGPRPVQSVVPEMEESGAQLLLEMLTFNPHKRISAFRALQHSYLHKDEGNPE
Procedure: as §1
Peptides were synthesized as described above. Cyclin D1 was expressed in E coli BL21(DE3) using PET expression vector and purified from the inclusion bodies. After refolding Cyclin D1 was cross-linked on SulfoLink agarose support (PIERCE). CDK4-6×His was expressed in Sf9 insect cells infected with the appropriate baculovirus construct and purified by metal-affinity chromatography (Quiagen). […] CDK4/Cyclin D1 phosphorilation of Rb was determined by incorporation of radio-labeled phosphate in GST-Rb in 96-well format kinase assay. […] The reaction was carried out for 30 min at 30 C at constant shaking. The GST-Rb-Sepharose beads were washed with 50 mM HEPES and 1 mM ATP and the radioactivity was measured on Scintillation counter (Topcount, HP)

[1] = relative to H-His-Ala-Lys-Arg-Arg-Leu-Ile-Phe-NH2 (SEQ ID No. 36) = 1, CDK2/cyclin A kinase assay
[2] = multiple substitutions (Example 22), relative to SEQ ID No. 36 = 1, CDK2/cyclin A kinase assay
[3] = Arg156 substitutions, relative to H-His-Ala-Lys-Arg-Arg-Leu-Ile-Phe-NH2 (=1)

Kinase Inhibition Cyclin E/CDK2 % Inhibition (CDK2/Cyclin E) [%] | Kinase Inhibition Cyclin E/CDK2 IC30 (CDK2/Cyclin E) [µM] | Kinase Inhibition Cyclin D1/CDK4 % Inhibition (CDK4/Cyclin D1) [%] | Kinase Inhibition Cyclin D1/CDK4 IC30 (CDK4/Cyclin D1) [µM] | Substance | also measured
70 | 11 ± 2 | 72 | 22 ± 4 | AFYHSKRRLIFS | –
80 | 5.3 ± 0.6 | 56 | 121 ± 31 | DFAHSKRRLIFS | –
80 | 12.9 ± 2.4 | 50 | 200 | DFYHSARRLIFS | –
45 | 200 | 10 | – | DFYHSK | –
50 | 200 | – | – | DFYHSKR | –
70 | 30 ± 8 | 30 | – | DFYHSKRALIFS | –
40 | – | 10 | – | DFYHSKRR (H-DFYHSKRR-NH2) | –
30 | – | 30 | – | DFYHSKRRAIFS (H-DFYHSKRRAIFS-NH2) | –
50 | 200 | 10 | – | DFYHSKRRL | –
35 | – | 20 | – | DFYHSKRRLI (H-DFYHSKRRLI-NH2) | –
70 | – | 60 | 40 | DFYHSKRRLIFA | –
80 | 6.8 ± 1.0 | 70 | 22 ± 5 | FYHSKRRLIFS | –
70 | – | 70 | 41 ± 10 | FYHSKRRLIFSK | –
35 | – | 10 | – | HSKRRLI (H-HSKRRLI-NH2) | –
90 | – | 80 | 34 ± 6 | HSKRRLIFSKRK | –
80 | 7.7 ± 0.5 | 72 | 54 | SKRRLIF | –
40 | – | 18 | – | SMTDFYHSKRRL (H-SMTDFYHSKRRL-NH2) | –
85 | – | 72 | 15 ± 3 | TDFYHSKRRLIF | –
35 | – | 30 | – | TSMTDFYHSKRR (H-TSMTDFYHSKRR-NH2) | –

Further lines, the substance ahead of its results:

Substance | Kinase Inhibition Cyclin E/CDK2 % Inhibition (CDK2/Cyclin E) [%] | Kinase Inhibition Cyclin E/CDK2 IC30 (CDK2/Cyclin E) [µM] | Kinase Inhibition Cyclin D1/CDK4 % Inhibition (CDK4/Cyclin D1) [%] | Kinase Inhibition Cyclin D1/CDK4 IC30 (CDK4/Cyclin D1) [µM] | also measured
114 (H-HAKRRLI[Psa]-OH) [compound 114] | – | – | – | – | Relative activity Kinase Inhibition (CDK2/cyclin A; [1]): 22
115 (H-HAKRRLI[dPsa]-OH) [compound 115] | – | – | – | – | Relative activity Kinase Inhibition (CDK2/cyclin A; [1]): <0.1
116 (H-HSKRRLI[Psa]-OH) [compound 116] | – | – | – | – | Relative activity Kinase Inhibition (CDK2/cyclin A; [1]): <0.1
117 (H-HSKRRLI[dPsa]-OH) [compound 117] | – | – | – | – | Relative activity Kinase Inhibition (CDK2/cyclin A; [1]): <0.1
122 (H-AA[Abu]RRLI[Phe(4-F)]-NH2; SMILES CC[C@H](NC(=O)[C@H](C)NC(=O)[C@H](C)N)C(=O)N[C@@H](CCCNC(=N)N)C(=O)N[C@@H](CCCNC(=N)N)C(=O)N[C@@H](CC(C)C)C(=O)N[C@H](C(=O)N[C@@H](Cc1ccc(F)cc1)C(N)=O)[C@@H](C)CC) [compound 122] | – | – | – | – | Relative activity Kinase Inhibition (CDK2/cyclin A; [2]): 60
123 (H-AAKRRLI[Phe(4-F)]-NH2; SMILES CC[C@H](C)[C@H](NC(=O)[C@H](CC(C)C)NC(=O)[C@H](CCCNC(=N)N)NC(=O)[C@H](CCCNC(=N)N)NC(=O)[C@H](CCCCN)NC(=O)[C@H](C)NC(=O)[C@H](C)N)C(=O)N[C@@H](Cc1ccc(F)cc1)C(N)=O) [compound 123] | – | – | – | – | Relative activity Kinase Inhibition (CDK2/cyclin A; [2]): 80
124 (H-AAKR[Cit]LI[Phe(4-F)]-NH2; SMILES CC[C@H](C)[C@H](NC(=O)[C@H](CC(C)C)NC(=O)[C@H](CCCNC(N)=O)NC(=O)[C@H](CCCNC(=N)N)NC(=O)[C@H](CCCCN)NC(=O)[C@H](C)NC(=O)[C@H](C)N)C(=O)N[C@@H](Cc1ccc(F)cc1)C(N)=O) [compound 124] | – | – | – | – | Relative activity Kinase Inhibition (CDK2/cyclin A; [2]): 10
125 (H-AAKRRLA[Phe(4-F)]-NH2; SMILES CC(C)C[C@H](NC(=O)[C@H](CCCNC(=N)N)NC(=O)[C@H](CCCNC(=N)N)NC(=O)[C@H](CCCCN)NC(=O)[C@H](C)NC(=O)[C@H](C)N)C(=O)N[C@@H](C)C(=O)N[C@@H](Cc1ccc(F)cc1)C(N)=O) [compound 125] | – | – | – | – | Relative activity Kinase Inhibition (CDK2/cyclin A; [2]): 20
126 (H-AA[Abu]RSLI[Phe(4-F)]-NH2; SMILES CC[C@H](NC(=O)[C@H](C)NC(=O)[C@H](C)N)C(=O)N[C@@H](CCCNC(=N)N)C(=O)N[C@@H](CO)C(=O)N[C@@H](CC(C)C)C(=O)N[C@H](C(=O)N[C@@H](Cc1ccc(F)cc1)C(N)=O)[C@@H](C)CC) [compound 126] | – | – | – | – | Relative activity Kinase Inhibition (CDK2/cyclin A; [2]): 14
127 (H-AAKQRLI[Phe(4-F)]-NH2; SMILES CC[C@H](C)[C@H](NC(=O)[C@H](CC(C)C)NC(=O)[C@H](CCCNC(=N)N)NC(=O)[C@H](CCC(N)=O)NC(=O)[C@H](CCCCN)NC(=O)[C@H](C)NC(=O)[C@H](C)N)C(=O)N[C@@H](Cc1ccc(F)cc1)C(N)=O) [compound 127] | – | – | – | – | Relative activity Kinase Inhibition (CDK2/cyclin A; [2]): 4
DAYHSKRRLIFS | 85 | 5.9 ± 0.4 | 76 | 37 ± 6 | –
DFYASKRRLIFS | 80 | 5.1 ± 0.5 | 60 | 73 ± 42 | –
DFYHSKARLIFS (H-DFYHSKARLIFS-NH2) | 25 | – | 30 | – | –
DFYHSKRRLAFS | 80 | 14 ± 3 | 61 | 53 ± 20 | –
DFYHSKRRLIAS (H-DFYHSKRRLIAS-NH2) | 20 | – | 35 | – | –
DFYHSKRRLIF | 75 | 2 ± 0.2 | 70 | 13 ± 2 | –
FYHSKRR | 45 | >200 | 20 | – | –
FYHSKRRL | 48 | >200 | 20 | – | –
FYHSKRRLI (H-FYHSKRRLI-NH2) | 45 | – | 20 | – | –
FYHSKRRLIF | 80 | – | 70 | 19 ± 3 | –
H-His-Ala-Lys-Arg-Aib-Leu-Ile Phe-NH2 | – | – | – | – | Relative activity Kinase Inhibition (CDK2/cyclin A; [3]): <0.1
H-His-Ala-Lys-Arg-Arg-Leu-Ile-[L-Psa]-OH (H-HAKRRLI[Psa]-OH) | – | – | – | – | inhibition of CDK2/cyclin A (pRb phosphorylation), in words (CDK2/cyclin A; b370: CDK2/cyclin A inhibition and/or cyclin A binding): particularly potent
H-His-Ala-Lys-Arg-Sar-Leu-Ile Phe-NH2 | – | – | – | – | Relative activity Kinase Inhibition (CDK2/cyclin A; [3]): <0.1
HSKRRL | 45 | >200 | – | – | –
HSKRRLIFS | 80 | – | 65 | 32 ± 6 | –
KRRLIF | 80 | – | 72 | >200 | –
MTDFYHSKRRLI (H-MTDFYHSKRRLI-NH2) | 35 | – | 11 | – | –
SKRRLIFSKRKP | 70 | 46 ± 33 | 40 | – | –
TDFYHSKRRLIF [p21(148-159)] | – | – | – | – | inhibition of CDK2/Cyclin E phosphorylation of GST-Rb, in words (CDK2/Cyclin E): active; inhibition of CDK4/Cyclin D1 phosphorylation of GST-Rb, in words (CDK4/Cyclin D1): active
